Values joined by “and” are separate entries in the source; they are usually repeats but may differ in a detail not shown here. Equal values may be shown once.
Test system: transgenic soybean cv Jake
Assay: Soybean greenhouse spray test, clones from T0 individuals, injury 0-9 point scale 1 week after treatment (Table 7A)
Assay type: in vivo, Glycine max
Procedure: Soybean cv Jake was transformed as previously described by Siminszky et al., Phytochem Rev. 5:445-458 (2006). After regeneration, transformants were transplanted to soil in small pots, placed in growth chambers (16 hr day/8 hr night; 25° C. day/23° C. night; 65% relative humidity; 130-150 microE m-2 s-1) and subsequently tested for the presence of the T-DNA via Taqman analysis. After a few weeks, healthy, transgenic positive, single copy events were transplanted to larger pots and allowed to grow in the growth chamber. An optimal shoot for cutting was about 3-4 inches tall, with at least two nodes present. Each cutting was taken from the original transformant (mother plant) and dipped into rooting hormone powder (indole-3-butyric acid, IBA). The cutting was then placed in oasis wedges inside a bio-dome. The mother plant was taken to maturity in the greenhouse and harvested for seed. Wild type cuttings were also taken simultaneously to serve as negative controls. The cuttings were kept in the bio-dome for 5-7 days and then transplanted to 3 inch pots and then acclimated in the growth chamber for two more days. […] Other herbicides, such as AHAS (ALS—Acetolactate Synthase) inhibiting herbicides were also tested in a similar fashion for confirming cross resistance to other modes of action: Tritosulfuron, Florasulam, Metsulfuron, Rimsulfuron. Herbicide injury evaluations were taken at 2, 7, 14 and 21 days after treatment.
• 0 No Injury • 1 Minimal injury, only a few patches of leaf injury or chlorosis. • 2 Minimal injury with slightly stronger chlorosis. Overall growth points remain undamaged. • 3 Slightly stronger injury on secondary leaf tissue, but primary leaf and growth points are still undamaged. • 4 Overall plant morphology is slightly different, some chlorosis and necrosis in secondary growth points and leaf tissue. Stems are intact. Regrowth is highly probable within 1 week. • 5 Overall plant morphology is clearly different, some chlorosis and necrosis on a few leaves and growth points, but primary growth point is intact. Stem tissue is still green. Regrowth is highly probably within 1 week. • 6 Strong injury can be seen on the new leaflet growth. Plant has a high probability to survive only through regrowth at different growth points. Most of the leaves are chlorotic/necrotic but stem tissue is still green. May have regrowth but with noticeable injured appearance. • 7 Most of the active growth points are necrotic. There may be a single growth point that could survive and may be partially chlorotic or green and partially necrotic. Two leaves may still be chlorotic with some green; the rest of the plant including stem is necrotic. • 8 Plant will likely die, and all growth points are necrotic. One leaf may still be chlorotic with some green. The remainder of the plant is necrotic. • 9 Plant is dead. • * Not tested

With `CC(C)N(C)S(=O)(=O)NC(=O)c1cc(-n2c(=O)cc(C(F)(F)F)n(C)c2=O)c(F)cc1Cl` [Saflufenacil, saflufenacil] the “injury (0-9 point scale) 1 week after treatment” value (shortened to “injury (0-9 point scale) 1 week”) (Saflufenacil 12.5 g ai/ha, GOI AmtuPPX2L_F420L stacked with Bradi_1g07930.1_Zm) was 6 and 5 and 0 (2×) and 1 (2×), the “injury (0-9 point scale) 1 week” value (Saflufenacil 12.5 g ai/ha, GOI Bradi_1g07930.1_Zm) was 4 (2×) and 1 and 6 (3×) and 0 and the “injury (0-9 point scale) 1 week” value (Saflufenacil 25 g ai/ha, GOI AmtuPPX2L_F420L stacked with Bradi_1g07930.1_Zm) was 6 and 0 (2×) and 2 (2×). For the same molecule, the “injury (0-9 point scale) 1 week” value (Saflufenacil 25 g ai/ha, GOI Bradi_1g07930.1_Zm) was 6 (4×) and 5 (2×) and 1, the “injury (0-9 point scale) 1 week” value (Saflufenacil 50 g ai/ha, GOI AmtuPPX2L_F420L stacked with Bradi_1g07930.1_Zm) was 5 (2×) and 6 and 1 (3×) and 2 (3×) and the “injury (0-9 point scale) 1 week” value (Saflufenacil 50 g ai/ha, GOI AmtuPPX2L_R128A_F420L stacked with Bradi_1g07930.1_Zm) was 1. The “injury (0-9 point scale) 1 week” value (Saflufenacil 50 g ai/ha, GOI AmtuPPX2L_R128A_F420V stacked with Bradi_1g07930.1_Zm) was 1 (4×) and 2 (2×) and 6 and 4 and 3, the “injury (0-9 point scale) 1 week” value (Saflufenacil 50 g ai/ha, GOI Bradi_1g07930.1_Zm) was 6 (2×) and 5 and the “injury (0-9 point scale) 1 week” value (Saflufenacil 100 g ai/ha, GOI AmtuPPX2L_F420L stacked with Bradi_1g07930.1_Zm) was 3 and 6 and 2. For the same molecule, the “injury (0-9 point scale) 1 week” value (Saflufenacil 100 g ai/ha, GOI AmtuPPX2L_R128A_F420L stacked with Bradi_1g07930.1_Zm) was 0 and 3 and 1 (3×) and 2 (4×) and 6 and 4, the “injury (0-9 point scale) 1 week” value (Saflufenacil 100 g ai/ha, GOI AmtuPPX2L_R128A_F420V stacked with Bradi_1g07930.1_Zm) was 3 (5×) and 0 and 1 and 7 and 2 and 5 and 4 and the “injury (0-9 point scale) 1 week” value (Saflufenacil 100 g ai/ha, GOI Bradi_1g07930.1_Zm) was 8 and 6. The “injury (0-9 point scale) 1 week” value (Saflufenacil 200 g ai/ha, GOI AmtuPPX2L_F420L stacked with Bradi_1g07930.1_Zm) was 2 (2×) and 6, the “injury (0-9 point scale) 1 week” value (Saflufenacil 200 g ai/ha, GOI AmtuPPX2L_R128A_F420L stacked with Bradi_1g07930.1_Zm) was 1 and 5 (2×) and 3 (2×) and 2 (4×) and 0 and 4 and the “injury (0-9 point scale) 1 week” value (Saflufenacil 200 g ai/ha, GOI AmtuPPX2L_R128A_F420V stacked with Bradi_1g07930.1_Zm) was 2 (4×) and 5 (2×) and 3 (2×) and 7 and 6 and 8.
